Assay results published in patent US20170015555A1, “LONG-TERM PRESERVATION AND NOVEL APPLICATION OF CHLOROUS ACID AQUEOUS SOLUTION FORMULATION” (priority 2013, published 2017).

Experiments:
[1] = tested on: Enterohemorrhagic Escherichia coli O26; assay: Sterilizing effect on floor surface after wiping off imitation vomit, rubber mattress; assay type: cell-based; settings: 1000 ppm available chlorine
Description: (§1) 1) Chlorous acid aqueous solution formulation (see Example 1: Table 11) Treatment sheet (material: 100% cotton): (about 27×40 cm) *Impregnated at a ratio of weight of treatment sheet (g): amount of liquid (ml)=1:3 2) Imitation vomit Miso solution: adjusted to pH of 2 with hydrochloric acid 3) Test Microbes that were Used E. coli: Escherichia coli IF03927 Staphylococcus aureus: Staphylococcus aureus IF0 12732 Thermoduric Microbes (Bacillus cereus): Bacillus cereus NBRC15305 Microbes of the genus Salmonella: Salmonella Enteritidis IF03313 Enterohemorrhagic Escherichia coli O157: Escherichia coli O157 Enterohemorrhagic Escherichia coli O111: Escherichia coli O111 Enterohemorrhagic Escherichia coli O26: Escherichia coli O26
(§2) (1) Imitation vomit was spread in an area about the size of an A4 sheet. (2) 5 agent solution-containing treatment sheets were laid thereon. (3) The imitation vomit was wiped off. (4) A cotton swab was soaked with sterile saline. A portion where imitation vomit was spread was scrubbed with the cotton swab to collect microbes remaining on the floor. After suspending in saline, the solution was spread on a petri dish and cultured. The number of each of the microbes was measured. (5) Test operations 3 and 4 were repeated a total of 7 times (repeated until the imitation vomit could be removed completely).

[2] = tested on: Enterohemorrhagic Escherichia coli O111; assay: as above; assay type: cell-based
Description: as §1, §2

[3] = tested on: Enterohemorrhagic Escherichia coli O157; assay: as above; assay type: cell-based; settings: 1000 ppm available chlorine
Description: as §1, §2

[4] = tested on: Bacillus cereus NBRC15305; assay: as above; assay type: cell-based; settings: 1000 ppm available chlorine
Description: as §1, §2

[5] = tested on: E. coli: Escherichia coli IF03927; assay: as above; assay type: cell-based; settings: 1000 ppm available chlorine
Description: as §1, §2

[6] = tested on: Staphylococcus aureus IF0 12732; assay: as above; assay type: cell-based; settings: 1000 ppm available chlorine
Description: as §1, §2

[7] = tested on: Microbes of the genus Salmonella: Salmonella Enteritidis IF03313; assay: as above; assay type: cell-based; settings: 1000 ppm available chlorine
Description: as §1, §2

[8] = Deodorizing effect (chemical deodorization, gas detector tube); settings: 400 ppm, spray 20 cc
Description: In order to evaluate tests on deodorizing effects, the present Example examined deodorizing effects by using standards regarding air freshening and deodorization ([II]-2 Method of Testing Deodorizing Efficacy (Chemical Deodorization)) set forth by the Air Fresheners and Deodorizers Conference (http://www.houkou.gr.jp/) as the efficacy testing method, which is adopted by Japan Food Research Laboratories.
Ammonium odor: Ammonium Standard Solution II (Wako Pure Chemical Industries, for testing malodorous substances) Amine odor: methyl mercaptan standard solution (Wako Pure Chemical Industries, for testing malodorous substances) Sulfur odor: hydrogen sulfide (self-made, used hydrogen sulfide that was generated by adding sulfuric acid to zinc sulfide)
Gas detector tube made by GASTEC Corporation Ammonium odor: Detector tube ammonium 3 L made by GASTEC Corporation Amino odor: Detector tube methyl mercaptan 71 made by GASTEC Corporation Sulfur odor: Detector tube hydrogen sulfide 4 LL made by GASTEC Corporation
Tests were conducted in compliance with ([II]-2 Method of Testing Deodorizing Efficacy (Chemical Deodorization)) set forth by the Air Fresheners and Deodorizers Conference.
The tests were carried out by static culture method, using a commercially-available airbag with a spigot having a volume of about 10 L as test containers. The volume of airbags was appropriately changed in accordance with the size of the product.
The bags were filled with odorless air. Malodor concentrations were measured over time at room temperature (about 20° C.). (3 points or higher, detection tube method (FIG. 16), measured by an instrument analysis method or olfactory measurement method. When decrease in the blank was observed, the decrease was suitably corrected. When measuring by olfactory measuring method, the airbag spigot was opened for direct sniffing, or gas was transferred to an odor bag while wearing a mask to perform olfactory measurement in an autonomic respiration form. Measured air was not returned to the source).
Next, for amine odor (methyl mercaptan), the residual concentrations were detected and recorded for control (no specimen), 20 ml (cc) of distilled water, sodium hypochlorite (expressed as Na hypochlorite, 400 ppm), and chlorous acid aqueous solution (expressed as CAAS, 400 ppm) prior to spraying and 0 hour, 3 hours, 6 hours, 9 hours, and 24 hours after spraying. The experiment was conducted twice.

[9] = 1000 ppm available chlorine, stored at 25° C. Day 0
[10] = 1000 ppm, stored at 25° C. Day 7
[11] = first experiment (Table 55), 0 h after spraying
[12] = first experiment (Table 55), 3 h after spraying
[13] = first experiment (Table 55), 6 h after spraying
[14] = first experiment (Table 55), 9 h after spraying
[15] = first experiment (Table 55), 24 h after spraying
[16] = first experiment (Table 55), before spraying
[17] = second experiment (Table 56), 0 h after spraying
[18] = second experiment (Table 56), 3 h after spraying
[19] = second experiment (Table 56), 6 h after spraying
[20] = second experiment (Table 56), 9 h after spraying
[21] = second experiment (Table 56), 24 h after spraying
[22] = second experiment (Table 56), before spraying

Structure (SMILES): OCl [Sodium Hypochlorite, sodium hypochlorite]
- microbes remaining, wiped 1 Time ([1]; stored at 25° C. Day 0): <10
- microbes remaining, wiped 2 Times ([1]; stored at 25° C. Day 0): <10
- microbes remaining, wiped 3 Times ([1]; stored at 25° C. Day 0): <10
- microbes remaining, wiped 1 Time ([1]; stored at 25° C. Day 7): 3.2 × 10^3
- microbes remaining, wiped 2 Times ([1]; stored at 25° C. Day 7): 1.0 × 10^3
- microbes remaining, wiped 3 Times ([1]; stored at 25° C. Day 7): 3.0 × 10^2
- microbes remaining, wiped 1 Time [2, 9]: <10
- microbes remaining, wiped 2 Times [2, 9]: <10
- microbes remaining, wiped 3 Times [2, 9]: <10
- microbes remaining, wiped 1 Time [2, 10]: 1.5 × 10^3
- microbes remaining, wiped 2 Times [2, 10]: 1.0 × 10^3
- microbes remaining, wiped 3 Times [2, 10]: 2.6 × 10^2
- microbes remaining, wiped 7 Times [2, 10]: <10
- microbes remaining, wiped 1 Time ([3]; stored at 25° C. Day 0): <10
- microbes remaining, wiped 2 Times ([3]; stored at 25° C. Day 0): <10
- microbes remaining, wiped 3 Times ([3]; stored at 25° C. Day 0): <10
- microbes remaining, wiped 1 Time ([3]; stored at 25° C. Day 7): 4.2 × 10^3
- microbes remaining, wiped 2 Times ([3]; stored at 25° C. Day 7): 1.2 × 10^3
- microbes remaining, wiped 3 Times ([3]; stored at 25° C. Day 7): 1.1 × 10^2
- microbes remaining, wiped 1 Time ([4]; stored at 25° C. Day 0): <10
- microbes remaining, wiped 2 Times ([4]; stored at 25° C. Day 0): <10
- microbes remaining, wiped 3 Times ([4]; stored at 25° C. Day 0): <10
- microbes remaining, wiped 1 Time ([4]; stored at 25° C. Day 7): 2.1 × 10^3
- microbes remaining, wiped 2 Times ([4]; stored at 25° C. Day 7): 6.5 × 10^2
- microbes remaining, wiped 3 Times ([4]; stored at 25° C. Day 7): 1.8 × 10^2
- Microbe count on floor, wiped 1 Time ([5]; Day 0 at 25° C.): <10
- Microbe count on floor, wiped 2 Times ([5]; Day 0 at 25° C.): <10
- Microbe count on floor, wiped 3 Times ([5]; Day 0 at 25° C.): <10
- Microbe count on floor, wiped 1 Time ([5]; Day 7 at 25° C.): 2.3 × 10^4
- Microbe count on floor, wiped 2 Times ([5]; Day 7 at 25° C.): 7.8 × 10^3
- Microbe count on floor, wiped 3 Times ([5]; Day 7 at 25° C.): 2.1 × 10^3
- Microbe count on floor, wiped 1 Time ([6]; Day 0 at 25° C.): <10
- Microbe count on floor, wiped 2 Times ([6]; Day 0 at 25° C.): <10
- Microbe count on floor, wiped 3 Times ([6]; Day 0 at 25° C.): <10
- Microbe count on floor, wiped 1 Time ([6]; Day 7 at 25° C.): 8.7 × 10^6
- Microbe count on floor, wiped 2 Times ([6]; Day 7 at 25° C.): 7.3 × 10^3
- Microbe count on floor, wiped 3 Times ([6]; Day 7 at 25° C.): 3.3 × 10^3
- microbes remaining, wiped 1 Time ([7]; stored at 25° C. Day 0): <10
- microbes remaining, wiped 2 Times ([7]; stored at 25° C. Day 0): <10
- microbes remaining, wiped 3 Times ([7]; stored at 25° C. Day 0): <10
- microbes remaining, wiped 1 Time ([7]; stored at 25° C. Day 7): 1.1 × 10^3
- microbes remaining, wiped 2 Times ([7]; stored at 25° C. Day 7): 3.6 × 10^2
- residual concentration of methyl mercaptan, after correction (Control = 100) [8, 11]: 22
- residual concentration of methyl mercaptan, before correction [8, 11]: 20 ppm
- residual concentration of methyl mercaptan, after correction (Control = 100) [8, 12]: 0
- residual concentration of methyl mercaptan, before correction [8, 12]: 0 ppm
- residual concentration of methyl mercaptan, after correction (Control = 100) [8, 13]: 0
- residual concentration of methyl mercaptan, before correction [8, 13]: 0 ppm
- residual concentration of methyl mercaptan, after correction (Control = 100) [8, 14]: 14
- residual concentration of methyl mercaptan, before correction [8, 14]: 5 ppm
- residual concentration of methyl mercaptan, after correction (Control = 100) [8, 15]: 25
- residual concentration of methyl mercaptan, before correction [8, 15]: 6 ppm
- residual concentration of methyl mercaptan, after correction (Control = 100) [8, 16]: 100
- residual concentration of methyl mercaptan, before correction [8, 16]: 90 ppm
- residual concentration of methyl mercaptan, after correction (Control = 100) [8, 17]: 11
- residual concentration of methyl mercaptan, before correction [8, 17]: 8 ppm
- residual concentration of methyl mercaptan, after correction (Control = 100) [8, 18]: 11
- residual concentration of methyl mercaptan, before correction [8, 18]: 5 ppm
- residual concentration of methyl mercaptan, after correction (Control = 100) [8, 19]: 12
- residual concentration of methyl mercaptan, before correction [8, 19]: 5 ppm
- residual concentration of methyl mercaptan, after correction (Control = 100) [8, 20]: 24
- residual concentration of methyl mercaptan, before correction [8, 20]: 7 ppm
- residual concentration of methyl mercaptan, after correction (Control = 100) [8, 21]: 35
- residual concentration of methyl mercaptan, before correction [8, 21]: 5 ppm
- residual concentration of methyl mercaptan, after correction (Control = 100) [8, 22]: 100
- residual concentration of methyl mercaptan, before correction [8, 22]: 70 ppm
